Broadly, the EC50 is the concentration needed to bring the measured effect to its halfway point. What is called solubility is how much of the substance goes into solution per volume. For orientation: IC50 means the concentration at which inhibition is half-maximal. Lower therefore signals higher potency. As a reminder, the melting point is the temperature of the solid-liquid transition.

Values after ≈ are worked out from the molar mass of the structure shown. Like-named read-outs stand apart in the source and are kept apart here. Some results are limits rather than exact numbers.

One series concerns Ehrlich solid tumor. Description: In vivo activity in Ehrlich solid tumor model. More on the design: species or system swiss mice. As to conditions: for % Tumor Growth Inhibition: day 13 vs saline control; for Mortality: dead/group size. As for the experimental part:
Ehrlich ascites carcinoma (EAC) cells were collected from the peritoneal cavity of the swiss mice (animal house of IIIM registered eith CPCSEA; registration no. 67/99/CPCSEA) weighing 18-23 gm, harbouring 8-10 days old ascitic tumor. 1×10^7 EAC cells were injected intramuscularly in the right thigh of 38 swiss male mice selected for the experiment on day 0. The next day, animals were randomized and divided into five groups. Four treatment groups contained 7 animals each and one control group contained 10 animals. Treatment was given as follows:
Group I: 1 (0.75 mg/kg, i/p) from day 1-9.
Group II: 1g (1 mg/kg, i/p) from day 1-9.
The third treatment group was treated with 5-fluorouracil (22 mg/kg, i/p) from day 1-9 and it served as positive control. The control group was similarly administered normal saline (0.2 ml, i/p) from day 1-9. On day 9 & 13, tumor bearing thigh of each animal was shaved and longest and shortest diameters of the tumor were measured with the help of vernier caliper. Tumor weight of each animal was calculated using the following formula.
The percent tumor growth inhibition was calculated on day 13 by comparing the average values of treated groups with that of control group. Tumor growth in saline treated control animals was taken to be 100%.

A further series concerns P-gp. In words: P-gp induction assay, rhodamine123 (Rh123) cell exclusion method in LS-180 cells. As to conditions: for % intracellular accumulation of Rh123 in LS180 cells: compound 100 nM, decrease indicates P-gp induction; for % intracellular accumulation of Rh123 in LS180 cells / EC50: 48 h; for EC50: read-out: EC50, induction of P-gp, P-gp overexpressing LS-180 cells. As for the experimental part:
All synthesized compounds were screened for their ability to induce P-gp by using rhodamine123 (Rh123) cell exclusion method. In this method, the P-gp function was evaluated in terms of rhodamine 123 (Rh123) accumulation and efflux. Briefly, the protocol used is as follows: Colorectal LS-180 cells (ECACC type, purchased from Sigma, Cat. no. 87021202, cell passage no. 52) were seeded at a density of 2×10^4 per well of 96 well plate and were allowed to grow for next 24 h. Cells were further incubated with the test compounds, and were diluted to a final concentration of 100 nM and rifampicin (standard) to a final concentration of 10 μM in complete media for 48 h. The final concentration of DMSO was kept at 0.1%. Drugs were removed and cells were incubated with HANKS buffer for 40 minutes before further incubation with HANKS buffer (containing 10 μM of Rh123 as a P-gp substrate) for 90 minutes. At the end of Rh123 treatment cells were washed four times with cold PBS followed by cell lysis for 1 h by using 200 μl of lysis buffer (0.1% Triton X-100 and 0.2 N NaOH). A total of 100 μl of lysate was used for reading fluorescence of Rh123 at 485 nm/529 nm. Samples were normalized by dividing fluorescence of each sample with total protein present in the lysate. For EC50 determination, different concentrations of compound were used to treat LS180 cells for 48 h. EC50 was determined by plotting fluorescence of Rh123 against concentration of compound.

The test system of series [1] is microtubules in HCT-116 cells. In words: Effect of compounds on microtubules, confocal microscopy. As to conditions: 100 nM, 24 h, anti-α-tubulin staining, compared to control. The class given is cell-based, Human. As for the experimental part:
For detection of tubulins, HCT-116 cells (1×10^5 cells/well) were seeded on to 18 mm square cover slips in six well plates in complete medium. […] After the treatment period, cells were fixed in 4% paraformaldehyde for 10 min at room temperature and permeabilized using 0.5% Triton-X in PBS for 5 min. The cells were blocked with 10% goat serum for 20 min at room temperature. Microtubules were detected with a monoclonal α-tubulin antibody (Sigma, Catalogue number: T9026) diluted 1:100 in 0.1% Triton X-100 in PBS for 1 h at room temperature and Alexa Fluor 488 conjugated secondary antibody (Invitrogen) diluted 1:500 in PBS for 1 h at room temperature. Cells were then washed three times in PBS and stained with 4′,6-diamidino-2-phenylindole (DAPI 1 μg/ml in PBS). The cover slips were mounted over glass slides and cells were imaged by a laser scanning confocal microscope (Olympus Fluoview FV1000). The promising candidates identified through P-gp screening and antiproliferative screening were further studied for tubulin polymerization inhibition activity.

Series [2] in a line: Thermodynamic equilibrium solubility. It counts as physicochemical. As to conditions: 25 °C, thermodynamic from solid, 25±1° C. As for the experimental part:
The compounds were first dissolved in methanol to prepare stock solutions (100 and 1000 μg/mL). Different concentrations of stock solutions were pipetted into the 96-well plates and the solvent was evaporated to ensure that solid drug was present in the beginning of the experiment. Thereafter, 200 μl of the dissolution medium was added to the wells and 96-well plate was shaken horizontally at 300 rpm (Eppendorf Thermoblock Adapter, North America) for 4 h at room temperature (25±1° C.). The plates were kept overnight for equilibration of drug in medium. Later, the plates were centrifuged at 3000 rpm for 15 min (Jouan centrifuge BR4i). Supernatant (50 μl) was pipetted into UV 96-well plates (Corning® 96 Well Clear Flat Bottom UV-Transparent Microplate) for analyses with plate reader (SpectraMax Plus384) at λmax of 350 nm. The analyses were performed in triplicate for each compound. The solubility curve of concentration (μg/mL) vs absorbance was plotted to find out saturation point and the corresponding concentration was noted.

In a further series the test system is HCT-116. In words: Antiproliferative activity, MTT assay, HCT-116. The class given is cell-based, Human. As for the experimental part: (§1) Human colon cancer cell lines HCT-116 (NCI, passage no. 5) and Colo-205 116 (NCI, passage no. 3) were procured from National Cancer Institute, USA. HCT-116 and Colo-205 cells were grown in McCoy's 5A and RPMI growth medium respectively containing 10% FCS, 100 U penicillin and […] per mL medium. Cells were grown in CO2 incubator (Thermocon Electron Corporation, Houston, Tex.) at 37° C. with 95% humidity and 5% CO2 gas environment. Cells treated with tested materials were dissolved in DMSO while the untreated control cultures received only the vehicle (DMSO<0.2%). Cells were seeded in 96 well plates and exposed to tested compounds at various concentrations for 48 h time interval. MTT dye (2.5 mg/ml in PBS) was added 4 hrs priors to experiment termination. The plates were then centrifuged at 1500 rpm for 15 min and the supernatant was discarded, and MTT formazan crystals were dissolved in 150 μl of DMSO. The OD measured at 570 nm with reference wavelength of 620 nm.
(§2) The percentages of cell viability and growth inhibition were calculated using formulas: […]

A further series relates to Colo-205. In words: Antiproliferative activity, MTT assay, Colo-205. The class given is cell-based. As to conditions: Homo sapiens, 48 h. As for the experimental part: as §1, §2
In general terms: Tetrazolium dyes change colour on reduction, which living cells bring about.

Where [3] appears, read: day 13, i/p day 1-9, 1 0.75 mg/kg, 1g 1 mg/kg, 5-fluorouracil 22 mg/kg.
Setting [4] is: i/p day 1-9, 1 0.75 mg/kg, 1g 1 mg/kg, 5-fluorouracil 22 mg/kg.
The mark [5] stands for this setting: aqueous buffer, phosphate buffer saline, read-out: Solubility, PBS.
Setting [6] is: fassgf or other biorelevant, simulated intestinal fluid, read-out: Solubility, SIF.
[7] abbreviates: simulated gastric fluid, read-out: Solubility, SGF.
Where [8] appears, read: water, read-out: Solubility, Water.

Consider `O=c1[nH]cc(F)c(=O)[nH]1` [5-Fluorouracil], for which, in the series on Ehrlich solid tumor (setting [3]), the “Day 13 Avg. tumor weights” value was found to be 668.2 mg. For the same molecule, in the series with Ehrlich solid tumor (setting [4]), the “% Tumor Growth Inhibition” value is 54.78% and the Mortality is recorded as 0/7.

As for `COc1cc2c(c(OC)c1OC)-c1ccc(OC)c(=O)cc1[C@@H](NC(C)=O)CC2` [Compound 1, Colchicine], the “% intracellular accumulation of Rh123 in LS180 cells” value with P-gp (control = 100%) is recorded as 62%. Further, in the series on P-gp, the EC50 worked out at 14.4 nM. In addition, in series [1], the “disruption of microtubule assembly” value was “remarkable disruption and loss of microtubules”. Further, the solubility in series [2] (setting [5]) was 800 µg/mL (≈ 2000 µM); in series [2] (setting [6]), 800 µg/mL (≈ 2000 µM); in series [2] (setting [7]) it was 200 µg/mL (≈ 501 µM); in series [2] (setting [8]) it was more than 1500 µg/mL. The “mortality, animals in the group of 7 animals” value in the series on Ehrlich solid tumor (colchicine 0.75 mg/kg, i/p) is listed as 2 animals; in the series on Ehrlich solid tumor (colchicine 1 mg/kg, i/p, text and footnote), 5 animals. The “Avg. body weights (g) of animal on days 1” value in the series with Ehrlich solid tumor (day 1, i/p day 1-9, 1 0.75 mg/kg, 1g 1 mg/kg, 5-fluorouracil 22 mg/kg) is recorded as 22.28 g. For the same molecule, in the series with Ehrlich solid tumor (day 5, i/p day 1-9, 1 0.75 mg/kg, 1g 1 mg/kg, 5-fluorouracil 22 mg/kg), the “Avg. body weights (g) of animal on days 5” value was 21.42 g. The “Avg. body weights (g) of animal on days 9” value in the series with Ehrlich solid tumor (day 9, i/p day 1-9, 1 0.75 mg/kg, 1g 1 mg/kg, 5-fluorouracil 22 mg/kg) stood at 20.2 g. In addition, the “Day 13 Avg. body weights” value in the series with Ehrlich solid tumor (setting [3]) turned out to be 19.25 g. In addition, the “Day 13 Avg. tumor weights” value in the series on Ehrlich solid tumor (setting [3]) amounted to 705.0 mg. For the same molecule, the “% Tumor Growth Inhibition” value with Ehrlich solid tumor (setting [4]) is given as 52.29%. Further, the Mortality in the series with Ehrlich solid tumor (colchicine 1 mg/kg, i/p) is recorded as 5/7; in the series on Ehrlich solid tumor (setting [4]) it was 2/7.

In turn, `COc1cc2c(c(OC)c1OC)-c1ccc(N3CCNCC3)c(=O)cc1[C@@H](NC(C)=O)CC2` [Compound 1a, N-[(7S)-1,2,3-Trimethoxy-9-oxo-10-(piperazin-1-yl)-5,6,7,9-tetrahydrobenzo[a]heptalen-7-yl]acetamide] registered a melting point of 158 to 161 °C. Besides, the “% intracellular accumulation of Rh123 in LS180 cells” value with P-gp (control = 100%) is on record as 90%. In the series on HCT-116 (Homo sapiens, HCT-116, 48 h), this molecule registered a half-maximal inhibitory concentration (IC50) of more than 10000 nM. The molecule also yielded a half-maximal inhibitory concentration (IC50) in the series on Colo-205 of 8000 nM.

`COc1cc2c(c(OC)c1OC)-c1ccc(N3CCC(N)CC3)c(=O)cc1[C@@H](NC(C)=O)CC2` [Compound 1b, N-[(7S)-1,2,3-Trimethoxy-9-oxo-10-(4-amino-piperidin-1-yl)-5,6,7,9-tetrahydrobenzo[a]heptalen-7-yl]acetamide]: the “% intracellular accumulation of Rh123 in LS180 cells” value with P-gp (control = 100%) turned out to be 90%. Also, the concentration for half-maximal inhibition (IC50) turned out to be 10000 nM in the series with HCT-116 (Homo sapiens, HCT-116, 48 h) and 5000 nM in the series with Colo-205.

Turning to `COc1cc2c(c(OC)c1OC)-c1ccc(N3CCN(C(=O)OC(C)(C)C)CC3)c(=O)cc1C(NC(C)=O)CC2` [Compound 1c, N-[(7S)-1,2,3-Trimethoxy-9-oxo-10-(N-boc-piperazin-1-yl)-5,6,7,9-tetrahydrobenzo[a]heptalen-7-yl]acetamide], the IC50 in the series on HCT-116 (Homo sapiens, HCT-116, 48 h) turned out to be 4000 nM; with Colo-205 it was 3000 nM.

Regarding `COc1cc2c(c(OC)c1OC)-c1ccc(N3CCC(c4ccccc4)CC3)c(=O)cc1C(NC(C)=O)CC2` [Compound 1d, N-[(7S)-1,2,3-Timethoxy-9-oxo-10-(4-phenyl-piperidin-1-yl)-5,6,7,9-tetrahydrobenzo[a]heptalen-7-yl]acetamide], in the series on P-gp (control = 100%), the “% intracellular accumulation of Rh123 in LS180 cells” value amounted to 90%. The EC50 in the series on P-gp is 29.6 nM. For the same molecule, the IC50 in the series on HCT-116 (48 h) is 1000 nM; in the series with HCT-116 (Homo sapiens, HCT-116, 48 h), not above 1000 nM; with Colo-205, 800 nM. In addition, the solubility in series [2] (setting [5]) is 80 µg/mL (≈ 151 µM); in series [2] (setting [6]), 20 µg/mL (≈ 37.8 µM); in series [2] (setting [7]) it was more than 1500 µg/mL; in series [2] (setting [8]), 80 µg/mL (≈ 151 µM).

With `COc1cc2c(c(OC)c1OC)-c1ccc(N3CCC[C@@H]3CO)c(=O)cc1C(NC(C)=O)CC2` (stereo partly drawn) [Compound 1e, N-[(7S)-1,2,3-Trimethoxy-9-oxo-10-(L-prolinol-1-yl)-5,6,7,9-tetrahydrobenzo[a]heptalen-7-yl]acetamide], the IC50 in the series with HCT-116 (Homo sapiens, HCT-116, 48 h) turned out to be 10000 nM; with Colo-205, 8000 nM.

As to `COc1cc2c(c(OC)c1OC)-c1ccc(N3CCc4c([nH]c5ccccc45)C3)c(=O)cc1[C@@H](NC(C)=O)CC2` [Compound 1f, N-[(7S)-1,2,3-Trimethoxy-9-oxo-10-(2,3,4,9-tetrahydro-1H-pyrido[3,4-b]indole-2-yl)-5,6,7,9-tetrahydrobenzo[a]heptalen-7-yl]acetamide], in the series on P-gp (control = 100%), the “% intracellular accumulation of Rh123 in LS180 cells” value is recorded as 90%. Besides, the half-inhibitory concentration (IC50) is 3000 nM with HCT-116 (Homo sapiens, HCT-116, 48 h) and 800 nM with Colo-205.

On to `CO[C@H]1/C=C/O[C@@]2(C)Oc3c(C)c(O)c4c(O)c(c(/C=N/N5CCN(C)CC5)c(O)c4c3C2=O)NC(=O)/C(C)=C\C=C\[C@H](C)[C@H](O)[C@@H](C)[C@@H](O)[C@@H](C)[C@H](OC(C)=O)[C@@H]1C` [rifampicin, reference compound], for which, in the series on P-gp (rifampicin 10 μM, positive control, control = 100%), the “% intracellular accumulation of Rh123” value was 69%.

These data come from patent publication US9868695B2 (priority 2014, dated 2018).
